Data as given in US20230295234A1, “ANTIMICROBIAL PEPTIDOMIMETICS” (SPEXIS AG, priority 2020, published 2023).
Where two headings read alike, the source gives them in different places. Peptide text beside a SMILES is read from it.

What was measured:
[1] = tested on: Escherichia coli ATCC 25922
Procedure, shortened: (§1)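 Activity is measured against peptides serially diluted two-fold in water with 0.002% final Polysorbate 80. The cells are in cation-adjusted MHII broth at roughly 5×10^5 CFU/mL, prepared from a 0.5 McFarland suspension in 0.85% NaCl.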

[2] = tested on: Escherichia coli MCR-1 Af 45; details: Mueller-Hinton broth II, 18-20 hours at 35° C.
Procedure, shortened: as §1

[3] = tested on: Klebsiella pneumoniae SSI3010
Procedure, shortened: as §1

[4] = tested on: human red blood cells (hRBC); test: Hemolysis of human red blood cells; assay type: cell-based
Procedure, shortened: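 PBS-washed human red blood cells (20% v/v) were incubated with peptide at 200 μg/mL for 1 h at 37 °C with shaking. Supernatant OD was read at 540 nm after 8-fold dilution. Hemolysis is expressed as percent of the water control.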

[5] = Mueller-Hinton broth II, 18-20 hours at 35° C.

| SMILES | Escherichia coli ATCC 25922 MIC ([1]; ATCC 25922) [µg/mL] | Escherichia coli MCR-1 Af 45 MIC [2] [µg/mL] | Klebsiella pneumoniae SSI3010 MIC ([3]; SSI3010) [µg/mL] | Hemolysis at 0.2 g/L ([4]; red cells of human, 1 h) [%] | Escherichia coli ATCC 25922 MIC [1, 5] [µg/mL] | Klebsiella pneumoniae SSI3010 MIC [3, 5] [µg/mL] | Hemolysis at 0.2 g/L ([4]; 20% hRBC, 1 h at 37° C.) [%] |
| --- | --- | --- | --- | --- | --- | --- | --- |
| CC[C@H](C)[C@H](NC(=O)[C@@H]1C[C@@H](O)CN1C(=O)[C@@H](N)C(C)C)C(=O)N[C@H](C(=O)N[C@@H](Cc1ccc(O)cc1)C(=O)N[C@@H]1C(=O)N[C@@H](CC(N)=O)C(=O)N[C@@H](CCCNC(=N)N)C(=O)N[C@@H](CCN)C(=O)N[C@@H]([C@@H](C)O)C(=O)N[C@H](CCN)C(=O)N[C@@H](CCCNC(N)=O)C(=O)N[C@H](C(=O)N[C@@H](CCN)C(=O)N[C@@H](CCCNC(=N)N)C(=O)N[C@@H](Cc2ccc(O)cc2)C(=O)O)CSSC1(C)C)[C@@H](C)O [Example 180] (HELM PEPTIDE1{V.[Hyp].I.T.Y.[Pen].N.R.[Dab].T.[NCC[C@@H](N[*:1])C(=O)[*:2]].[Cit].C.[Dab].R.Y}$PEPTIDE1,PEPTIDE1,6:R3-13:R3$$$V2.0) | 0.25 | 0.25 | 0.5 | 1 | – | – | – |
| CC[C@H](C)[C@H](NC(=O)[C@@H]1C[C@@H](O)CN1C(=O)[C@@H](NC)C(C)C)C(=O)N[C@H](C(=O)N[C@@H](Cc1ccc(O)cc1)C(=O)N[C@@H]1C(=O)N[C@@H](CC(N)=O)C(=O)N[C@@H](CCCNC(=N)N)C(=O)N[C@@H](CCN)C(=O)N[C@@H]([C@@H](C)O)C(=O)N[C@H](CCN)C(=O)N[C@@H](CCCCN)C(=O)N[C@H](C(=O)N[C@@H](CCN)C(=O)N[C@@H](CCCNC(=N)N)C(=O)N[C@@H](Cc2ccc(O)cc2)C(=O)O)CSSC1(C)C)[C@@H](C)O [Example 181] (HELM PEPTIDE1{[meV].[Hyp].I.T.Y.[Pen].N.R.[Dab].T.[NCC[C@@H](N[*:1])C(=O)[*:2]].K.C.[Dab].R.Y}$PEPTIDE1,PEPTIDE1,6:R3-13:R3$$$V2.0) | 0.125 | 0.125 | 0.25 | 0 | – | – | – |
| CC[C@H](C)[C@H](NC(=O)[C@@H]1C[C@@H](O)CN1C(=O)[C@@H](N)C(C)C)C(=O)N[C@H](C(=O)N[C@@H](Cc1ccc(O)cc1)C(=O)N[C@@H]1C(=O)N[C@@H](CN)C(=O)N[C@@H](CCCNC(=N)N)C(=O)N[C@@H](CCN)C(=O)N[C@@H]([C@@H](C)O)C(=O)N[C@H](CCN)C(=O)N[C@@H](CCCCN)C(=O)N[C@H](C(=O)N[C@@H](CCN)C(=O)N[C@@H](CCCNC(=N)N)C(=O)N[C@@H](Cc2ccc(O)cc2)C(=O)O)CSSC1(C)C)[C@@H](C)O [Example 182] (HELM PEPTIDE1{V.[Hyp].I.T.Y.[Pen].[NC[C@H](N[*:1])C(=O)[*:2]].R.[Dab].T.[NCC[C@@H](N[*:1])C(=O)[*:2]].K.C.[Dab].R.Y}$PEPTIDE1,PEPTIDE1,6:R3-13:R3$$$V2.0) | 0.0625 | 0.125 | 0.25 | 0 | – | – | – |
| CC[C@H](C)[C@H](NC(=O)[C@@H]1C[C@@H](O)CN1C(=O)[C@@H](N)C(C)C)C(=O)N[C@@H](CN)C(=O)N[C@@H](Cc1ccc(O)cc1)C(=O)N[C@@H]1C(=O)N[C@@H](CC(N)=O)C(=O)N[C@@H](CCCNC(=N)N)C(=O)N[C@@H](CCN)C(=O)N[C@@H]([C@@H](C)O)C(=O)N[C@H](CCN)C(=O)N[C@@H](CCCCN)C(=O)N[C@H](C(=O)N[C@@H](CCN)C(=O)N[C@@H](CCCNC(=N)N)C(=O)N[C@@H](Cc2ccc(O)cc2)C(=O)O)CSSC1(C)C [Example 183] (HELM PEPTIDE1{V.[Hyp].I.[NC[C@H](N[*:1])C(=O)[*:2]].Y.[Pen].N.R.[Dab].T.[NCC[C@@H](N[*:1])C(=O)[*:2]].K.C.[Dab].R.Y}$PEPTIDE1,PEPTIDE1,6:R3-13:R3$$$V2.0) | 0.25 | 0.125 | 0.5 | 0 | – | – | – |
| CC[C@H](C)[C@H](NC(=O)[C@@H]1C[C@@H](O)CN1C(=O)[C@@H](N)C(C)C)C(=O)N[C@@H](CCCNC(=N)N)C(=O)N[C@@H](Cc1ccc(O)cc1)C(=O)N[C@@H]1C(=O)N[C@@H](CC(N)=O)C(=O)N[C@@H](CCCNC(=N)N)C(=O)N[C@@H](CCN)C(=O)N[C@@H]([C@@H](C)O)C(=O)N[C@H](CCN)C(=O)N[C@@H](CCCCN)C(=O)N[C@H](C(=O)N[C@@H](CCN)C(=O)N[C@@H](CCCNC(=N)N)C(=O)N[C@@H](Cc2ccc(O)cc2)C(=O)O)CSSC1(C)C [Example 184] (HELM PEPTIDE1{V.[Hyp].I.R.Y.[Pen].N.R.[Dab].T.[NCC[C@@H](N[*:1])C(=O)[*:2]].K.C.[Dab].R.Y}$PEPTIDE1,PEPTIDE1,6:R3-13:R3$$$V2.0) | 0.25 | 0.0625 | 0.25 | 0 | – | – | – |
| CC[C@H](C)[C@H](NC(=O)[C@@H]1C[C@@H](N)CN1C(=O)[C@@H](N)C(C)C)C(=O)N[C@H](C(=O)N[C@@H](Cc1ccc(O)cc1)C(=O)N[C@@H]1C(=O)N[C@@H](CC(N)=O)C(=O)N[C@@H](CCCNC(=N)N)C(=O)N[C@@H](CCN)C(=O)N[C@@H]([C@@H](C)O)C(=O)N[C@H](CCN)C(=O)N[C@@H](CCCCN)C(=O)N[C@H](C(=O)N[C@@H](Cc2ccc(O)cc2)C(=O)N[C@@H](CCCNC(=N)N)C(=O)N[C@@H](Cc2ccc(O)cc2)C(=O)O)CSSC1(C)C)[C@@H](C)O [Example 185] (HELM PEPTIDE1{V.[N[C@@H]1C[C@@H](C(=O)[*:2])N([*:1])C1].I.T.Y.[Pen].N.R.[Dab].T.[NCC[C@@H](N[*:1])C(=O)[*:2]].K.C.Y.R.Y}$PEPTIDE1,PEPTIDE1,6:R3-13:R3$$$V2.0) | 0.25 | 0.125 | 0.5 | 0 | – | – | – |
| CC[C@H](C)[C@H](NC(=O)[C@@H](NC(=O)[C@@H]1CCCN1C(=O)[C@@H](NC(=N)N)C(C)C)[C@@H](C)CC)C(=O)N[C@@H](Cc1ccc(O)cc1)C(=O)N[C@H]1CSSC[C@@H](C(=O)N[C@@H](CCN)C(=O)N[C@@H](CCCNC(=N)N)C(=O)N[C@@H](Cc2ccc(O)cc2)C(=O)O)NC(=O)[C@H](CCCCN)NC(=O)[C@@H](CCN)NC(=O)[C@H]([C@@H](C)O)NC(=O)[C@H](CCN)NC(=O)[C@H](CCCNC(=N)N)NC(=O)[C@H](CC(N)=O)NC1=O [Example 186] (HELM PEPTIDE1{[CC(C)[C@H](NC(=N)N)C(=O)[*:2]].P.I.I.Y.C.N.R.[Dab].T.[NCC[C@@H](N[*:1])C(=O)[*:2]].K.C.[Dab].R.Y}$PEPTIDE1,PEPTIDE1,6:R3-13:R3$$$V2.0) | 0.125 | 0.125 | ≤0.25 | 0 | – | – | – |
| CC[C@H](C)[C@H](NC(=O)[C@@H](NC(=O)[C@@H]1CCCN1C(=O)[C@@H](NC(=N)N)C(C)C)[C@@H](C)CC)C(=O)N[C@@H](Cc1ccc(O)cc1)C(=O)N[C@@H]1C(=O)N[C@@H](CC(N)=O)C(=O)N[C@@H](CCCNC(=N)N)C(=O)N[C@@H](CCN)C(=O)N[C@@H]([C@@H](C)O)C(=O)N[C@H](CCN)C(=O)N[C@@H](CCCCN)C(=O)N[C@H](C(=O)N[C@@H](CCN)C(=O)N[C@@H](CCCNC(=N)N)C(=O)N[C@@H](Cc2ccc(O)cc2)C(=O)O)CSSC1(C)C [Example 187] (HELM PEPTIDE1{[CC(C)[C@H](NC(=N)N)C(=O)[*:2]].P.I.I.Y.[Pen].N.R.[Dab].T.[NCC[C@@H](N[*:1])C(=O)[*:2]].K.C.[Dab].R.Y}$PEPTIDE1,PEPTIDE1,6:R3-13:R3$$$V2.0) | – | 0.125 | – | – | 0.125 | 0.125 | 0 |
| CC[C@H](C)[C@H](NC(=O)[C@@H]1C[C@@H](O)CN1C(=O)[C@@H](NC(=N)N)C(C)C)C(=O)N[C@H](C(=O)N[C@@H](Cc1ccc(O)cc1)C(=O)N[C@@H]1C(=O)N[C@@H](CC(N)=O)C(=O)N[C@@H](CCCNC(=N)N)C(=O)N[C@@H](CCN)C(=O)N[C@@H]([C@@H](C)O)C(=O)N[C@H](CCN)C(=O)N[C@@H](CCCCN)C(=O)N[C@H](C(=O)N[C@@H](CCN)C(=O)N[C@@H](CCCNC(=N)N)C(=O)N[C@@H](Cc2ccc(O)cc2)C(=O)O)CSSC1(C)C)[C@@H](C)O [Example 188] (HELM PEPTIDE1{[CC(C)[C@H](NC(=N)N)C(=O)[*:2]].[Hyp].I.T.Y.[Pen].N.R.[Dab].T.[NCC[C@@H](N[*:1])C(=O)[*:2]].K.C.[Dab].R.Y}$PEPTIDE1,PEPTIDE1,6:R3-13:R3$$$V2.0) | 0.125 | ≤0.125 | 0.25 | 0 | – | – | – |
